# According to patent publication US20150119352A1, “DINUCELOSIDE POLYPHOSPHATES FOR THE TREATMENT OF PAIN” (GlobalAcorn Ltd., priority 2012, published 2015):
# Entries after “also recorded” stand apart in the source; their conditions may differ. Read-outs that look alike come from different tables or passages of the source.
# Tests used:
# [1] = biological target: T1, rat homomeric P2X3 receptors (Rattus norvegicus, UniProt P49654); experiment: Whole-cell patch clamp on HEK cells expressing rat homomeric P2X3 receptors; format: cell-based; details: for depression of P2X3 current: 1 μM; for nH of the activation dose-response curve: activation of P2X3 receptors
# T1 construct: transfected with rat full-length P2X3 cDNA subcloned into pIRES2-EGFP; expressed in transfected cells; host or cells: HEK293T
# T1 sequence (P49654 1-397): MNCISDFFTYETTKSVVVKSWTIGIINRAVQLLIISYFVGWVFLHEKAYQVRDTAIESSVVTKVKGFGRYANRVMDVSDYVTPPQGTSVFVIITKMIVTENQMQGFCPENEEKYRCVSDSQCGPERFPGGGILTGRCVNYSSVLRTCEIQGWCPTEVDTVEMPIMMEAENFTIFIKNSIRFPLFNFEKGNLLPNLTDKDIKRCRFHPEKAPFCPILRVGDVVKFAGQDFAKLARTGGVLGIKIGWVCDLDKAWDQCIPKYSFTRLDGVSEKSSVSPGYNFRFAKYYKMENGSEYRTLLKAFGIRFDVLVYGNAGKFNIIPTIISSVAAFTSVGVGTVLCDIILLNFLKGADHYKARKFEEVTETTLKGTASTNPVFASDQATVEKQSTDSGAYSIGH
# Experimental: Rat trigeminal (TG), nodose (NG) or dorsal root ganglion (DRG) neurons in culture were prepared as described previously (Sokolova et al., 2001; Simonetti et al., 2006). Neurons were plated on poly-L-lysine (0.2 mg/mL)-coated Petri dishes and cultured for 1 to 2 days under an atmosphere containing 5% CO2. Cells were used within 2 days of plating when they lacked processes. HEK293T cells were prepared as reported previously (Fabbretti et al., 2004; Sokolova et al., 2004) and transfected with rat full-length P2X3 cDNA subcloned into pIRES2-EGFP (Clontech, Mountain View, Calif., USA).
# Trigeminal, nodose, DRG neurons or HEK cells were recorded in the whole-cell configuration while being continuously superfused (at 2 mL/min) with control solution containing (in mM): 152 NaCl, 5 KCl, 1 MgCl2, 2 CaCl2, 10 glucose, and 10 HEPES; pH was adjusted to 7.4 with NaOH and osmolarity was adjusted to 320 mOsM with glucose. […] Responses to selective P2X3 receptor agonist α,β-methylene-ATP (α,β-meATP; resistant to ectoATPase hydrolysis, Sigma-Aldrich) were measured using an EPC-9 amplifier and HEKA Patch Master software (HEKA Electronik, Germany). Cells were voltage-clamped at −70 mV. In most cells, series resistance was compensated by 80%. To determine half effective concentration of agonist (EC50), dose-response curves for α,β-meATP were constructed by applying different agonist doses to the same cells and fitting them with a logistic equation (Origin 8.0, Microcal, Northampton, Mass.).
# Agonists and antagonists were applied, usually for 2 sec, via a rapid superfusion system (Rapid Solution Changer RSC-200; BioLogic Science Instruments, Grenoble, France) placed 100 to 150 μm near the cell. The time for the solution exchange across the cell was approximately 30 ms, as judged with liquid junction potential measurements. All chemicals, including enzymes for cell culture, were from Sigma (St. Louis, Mo.). Culture media were obtained from Invitrogen (Milan, Italy).
# The peak amplitudes of the responses were measured using HEKA Patch Master software. For each agonist, dose-response plots were constructed by normalizing data with respect to the maximum response. All data are presented as mean±S.E.M. (n=the number of cells) with statistical significance assessed by paired t-test (for parametric data) or Mann-Whitney rank sum test (for non-parametric data). Best fits of data with a sigmoid function were compared with respective control fits using Origin 8.0 software. A value of P<0.05 was accepted as indicative of statistically significant difference.
# The inhibitory (suppressive) potencies of AppNHppA and AppCH2ppA via high affinity desensitization (HAD) were evaluated. The inventors applied both synthetic analogues in different experiments during rhythmic 2 s long (2 […]) activations of P2X3 receptors using 10 μM α,β-meATP (for protocol see FIG. 2 top).
# [2] = test system: rats; experiment: Hargreaves plantar test under complete Freund adjuvant-induced thermal hyperalgesia; format: in vivo, rat; details: for antinociceptive effect on CFA-induced thermal hyperalgesia (paw withdrawal latency): injection (100 μL) into the inflamed hind paw
# Experimental: FIG. 8. […] A. Time-course of the effects of 1 and 20 μM (100 μL) of AppCH2ppA and AppNHppA on the paw withdrawal latency (PWL). B. Bar-graphs of the effects of AppCH2ppA and AppNHppA on the integral PWL.
# FIG. 10. […] A. Time-course of the effects of i.t. AppCH2ppA on complete Freund adjuvant-induced thermal hyperalgesia (Hargreaves plantar test). B. Bar-graphs of the effects of i.t. AppCH2ppA on rat PWL.
"depression of P2X3 current ([1]; α,β-meATP pulses every 30 s (high rate))","depression of P2X3 current ([1]; α,β-meATP pulses every 2 min (low rate))","EC50 ([1]; agonist applied for 2 s, read-out: EC50 for activation of P2X3 mediated currents)","IC50 ([1]; test pulses of 10 μM α,β-meATP every 2 min, measured 6 min after drug application, read-out: IC50 for inhibition of P2X3 mediated currents)",Structure (SMILES),nH of the activation dose-response curve [1],antinociceptive effect on CFA-induced thermal hyperalgesia (paw withdrawal latency) [2],"antinociceptive effect ([2]; intra-thecal administration, 20 μM)",antinociceptive effect ([2]; intraplantar administration),"antinociceptive effect of intrathecal compared with intraplantar injection ([2]; intrathecal 20 μM, 100 μL)","effect of local peripheral intraplantar injection relative to intrathecal injection ([2]; rat, in vivo)",EC50 [1],IC50 [1],"amplitude of the following α,β-meATP response ([1]; 10 nM applied for 6 min)",inhibition (suppression) of test responses ([1]; 3 μM),induction of membrane currents ([1]; 0.1 or 1 μM),induction of membrane currents ([1]; 10 or 100 μM),"remaining activity at 0.1 µM ([1]; HEK293, read-out: test responses reduced to (% of control))","current response as % of the response induced by 10 μM of α,β-meATP ([1]; saturating 1 mM concentration, same cell)"
81±3%,61.3±5%,9.3 ± 1.7 µM,0.55 ± 0.2 µM,Nc1ncnc2c1ncn2[C@@H]1O[C@H](COP(=O)(O)OP(=O)(O)CP(=O)(O)OP(=O)(O)OC[C@H]2O[C@@H](n3cnc4c(N)ncnc43)C(O)C2O)C(O)C1O (stereo in doubt) [AppCH2ppA],2.27±0.56,antinociceptive effect was observed,27%,53%,weaker delayed antinociceptive effect; also recorded: less pronounced analgesia,two-fold higher effect,–,–,–,–,–,–,–,–
–,–,–,–,Nc1ncnc2c1ncn2[C@@H]1O[C@H](COP(=O)(O)OP(=O)(O)NP(=O)(O)OP(=O)(O)OC[C@H]2O[C@@H](n3cnc4c(N)ncnc43)C(O)C2O)C(O)C1O (stereo in doubt) [AppNHppA],1.58±0.05,antinociceptive effect was observed,–,–,–,–,41.6 ± 1.3 µM,0.2 ± 0.04 µM,almost unchanged,strong (almost full) inhibition,not to induce membrane currents,small and slowly desensitizing currents,38.2 ± 8.5%,41.2±13%
